Legend:
[1] = test system: ECV304; test: MTT assay, inhibition of proliferation of ECV304 endothelial cells (72 hours); type: cell-based, human; conditions: concentration causing 50% cytotoxicity
Experimental: 30µl of ECV304 cell suspension (50 x 10^4 cells/ml in RPMI 1640 containing 10% FBS) followed by 150µl of medium was added to the wells of a 96-well tissue culture plate (Nunc, Denmark) and incubated (37°C, 5% CO2) overnight. […] Each concentration was plated in triplicates. 20µl of medium alone was added to control wells. After 72 hours of incubation an MTT assay (Mosmann, 1983) was performed and percentage inhibition in proliferation of treated cells was calculated with respect to control cells.

[2] = test system: DU145; test: Cytotoxicity assay for tumor cells, prostate DU145; type: cell-based; conditions: concentration causing 50% cytotoxicity
Source text: (§1) The cytotoxicity assays for tumor cells have been described in detail in our application No. 09/040,856 filed in US on March 18, 1998. […] Table - I

[3] = test system: ECV304; test: Tube-like-structure (TLS) formation of ECV304 cells on Matrigel; type: cell-based, human; conditions: 24 - 48 hours, mean of five fields
Experimental: Matrigel (70 µl) was placed into each well of a 96-well culture plate at 4°C and was allowed to polymerize by incubation at 37°C for 30 min. ECV304 (1 x 10^4) cells were seeded on the Matrigel in 200 µl DMEM containing 10% FBS. […] Five different phase-contrast microscopic fields (4X) were viewed and total tube area of the tube-like-structures (TLS) measured using Video Pro 32 Image Analysis system. Percent reduction in total tube area was given as the mean of the data from five fields. Percent inhibition of TLS was calculated with reference to Controls(no drug). Table - III

[4] = test system: L132; test: Cytotoxicity assay for tumor cells, lung L132; type: cell-based; conditions: concentration causing 50% cytotoxicity
Source text: as §1

[5] = test system: HT-29; test: Cytotoxicity assay for tumor cells, colon HT-29; type: cell-based; conditions: concentration causing 50% cytotoxicity
Source text: as §1

[6] = test system: PA-1; test: Cytotoxicity assay for tumor cells, ovary PA-1; type: cell-based; conditions: concentration causing 50% cytotoxicity
Source text: as §1

| SMILES | Endothelial ECV304 (ED50) [1] [µg/mL] | Prostate DU145 (ED50) [2] [µg/mL] | % reduction in total tube area at concentration 0.5 µg/ml [3] [%] | % reduction in total tube area at concentration 2 µg/ml [3] [%] | % reduction in total tube area at concentration 4 µg/ml [3] [%] | Lung L132 (ED50) [4] [µg/mL] | Colon HT-29 (ED50) [5] [µg/mL] | Ovary PA-1 (ED50) [6] [µg/mL] |
| --- | --- | --- | --- | --- | --- | --- | --- | --- |
| CC(C)C1CCC2(C(=O)O)CCC3(C)C(CCC4C5(C)CCC(=NOCc6ccc([N+](=O)[O-])cc6)C(C)(C)C5CCC43C)C12 (stereo not shown) [MJ1098-RS] | 0.6 | 1.5 | 15 | 7.5 | 10 | 1.3 | 2.6 | 1.6 |
| CC(C)C1CCC2(C(=O)O)CCC3(C)C(CCC4C5(C)CCC(OC(=O)c6ccccc6C(F)(F)F)C(C)(C)C5CCC43C)C12 (stereo not shown) [MJ943-RS] | 2.6 | > 4 | – | – | – | 4 | > 10 | > 4 |
| COc1ccc(NNC2CCC3(C)C(CCC4(C)C3CCC3C5C(C(C)C)CCC5(C(=O)O)CCC34C)C2(C)C)cc1 (stereo not shown) [MJ912-RS] | 0.4 | 8.5 | – | – | – | > 4 | 0.35 | – |
| CC(C)C1CCC2(C(=O)O)CCC3(C)C(CCC4C5(C)CCC(OC(=O)c6ccc(F)cc6F)C(C)(C)C5CCC43C)C12 (stereo not shown) [MJ937-RS] | 0.7 | 2.5 | 16.7 | 21 | 21.7 | 1.1 | 1.7 | 1.6 |
| CC(C)C1CCC2(C(=O)O)CCC3(C)C(CCC4C5(C)CCC(OC(=O)c6cc(F)cc(F)c6)C(C)(C)C5CCC43C)C12 (stereo not shown) [MJ935-RS] | 0.7 | 3.2 | – | – | – | 1.2 | > 10 | – |
| C=C(C)C1CCC2(C(=O)O)CCC3(C)C(CCC4C5(C)CCC(OC(=O)Cc6cc(OC)ccc6OC)C(C)(C)C5CCC43C)C12 (stereo not shown) [MJ1108-RS] | 1.8 | 1 | – | – | – | 4.6 | > 10 | – |
| C=C(C)C1CCC2(C(=O)O)CCC3(C)C(CCC4C5(C)CCC(=NNc6ccccc6)C(C)(C)C5CCC43C)C12 (stereo not shown) [MJ353-RS] | 2.4 | 6.5 | – | – | – | 4.5 | > 10 | 5 |
| CC(C)C1CCC2(C(=O)O)CCC3(C)C(CCC4C5(C)CCC(N=Cc6ccc(F)cc6F)C(C)(C)C5CCC43C)C12 (stereo not shown) [MJ1065-RS] | 2.4 | 2.5 | 23.4 | 16.7 | 46.7 | 3.4 | 4.9 | 1.3 |
| C=C(C)C1CCC2(C(=O)O)CCC3(C)C(CCC4C5(C)CCC(OC(=O)c6cccc(C(F)(F)F)c6)C(C)(C)C5CCC43C)C12 (stereo not shown) [MJ939-RS] | 0.9 | > 10 | – | – | – | 2.7 | > 10 | > 4 |
| C=C(C)C1CCC2(C(=O)O)CCC3(C)C(CCC4C5(C)CCC(OC(=O)c6ccc(CCCCC)cc6)C(C)(C)C5CCC43C)C12 (stereo not shown) [MJ1104-RS] | 1.9 | 2 | – | – | – | 5.9 | 3.5 | > 4 |
| CC(C)C1CCC2(C(=O)O)CCC3(C)C(CCC4C5(C)CCC(N=Cc6ccc(F)c(F)c6)C(C)(C)C5CCC43C)C12 (stereo not shown) [MJ998-RS] | 0.35 | 2.2 | 21.1 | 13.4 | 33.4 | 2.5 | 4 | 1.3 |

— patent publication EP1218402B1 (Dabur Research Foundation, priority 1999, dated 2001)
